Test results: patent US20250099684A1, “HYDROGEN PEROXIDE SOLUTION-PREFILLED SYRINGE WITH EXCELLENT HYDROGEN PEROXIDE PRESERVATION DUE TO SILICONE OIL INCLUDED IN OIL COMPOSITION” (KORTUC Inc., priority 2019, published 2025)
Like-named read-outs stand apart in the source and are kept apart here.

Conditions: sealed, stored at 60° C. for 4 weeks, Oxydol "KENEI" 2.5 to 3.5% (w/v) hydrogen peroxide

**Q.** What does the source list for `OO` [hydrogen peroxide]?
**A.** residual ratio of hydrogen peroxide (glass container coated with the silicone oil (Dow Corning 360 Medical Fluid, 12,500 cSt)): ≥ 78%; residual ratio of hydrogen peroxide (glass container not coated with the silicone oil): about 70%
